Experimental data as given in US9718812B2, “Substituted thiazole or oxazole P2X7 receptor antagonists” (Axxam S.P.A., priority 2014, dated 2017).

What was measured:
P2X7 receptor (hP2X7) = P2X7 receptor (hP2X7) (Homo sapiens (Human), UniProt Q99572); assay: Screen Quest Fluo-8 No Wash Calcium Assay (Bz-ATP-induced Ca2+ influx, FLIPR TETRA); assay type: cell-based; conditions: HEK-293 cells stably transfected with P2X7 receptor, Fluo-8 calcium, Low Divalent Cation Assay Buffer
Experimental: Extracellular binding of Bz-ATP to P2X7 receptor opens the channel and allows Ca2+ influx into the cells. This Ca2+ entry was measured in HEK-293 cells stably transfected with P2X7 receptor using Screen Quest™ Fluo-8 No Wash Calcium Assay Kit (AAt Bioquest®, cat. 36316). Once inside the cell, the lipophilic blocking groups of Fluo-8 are cleaved by non-specific cell esterases, resulting in a negatively-charged fluorescent dye that stays inside cells. Its fluorescence increases upon binding to calcium. When HEK-293/P2X7 cells are stimulated with Bz-ATP, Ca2+ enters the cells and the fluorescence of Fluo-8 NW increases. The dye has an absorption spectrum compatible with excitation at 488 nm by argon laser sources and its emission wavelength is in the range of 515-575 nm.
HEK-293 cells stably transfected with P2X7 receptor were seeded overnight in growth medium at 10,000 to 20,000 cells/well in 384-well plate. 24 hours later, the medium was removed and the cells were pre-loaded at RT for 1 hour with 20 μL/w of Fluo-8 NW. Then 10 μL/w of test compounds and reference antagonist A438079 at 3×-concentration were injected with the […] and the kinetic response over a period of five minutes was monitored.

P2X7 receptor = P2X7 receptor (Homo sapiens (Human), UniProt Q99572); assay: YO-PRO-1 Uptake Assay (large pore form, Bz-ATP stimulated); assay type: cell-based; conditions: HEK-293 cells stably transfected with P2X7 receptor; Bz-ATP EC80 (30 μM); 5 μM YO-PRO-1
From the text: YO-PRO®-1 is a fluorescent DNA-binding dye with a MW of 374 Da (Molecular Probes®, cat. Y3603). This method is based upon the presumed ability of YO-PRO®-1 to enter through the dilated or “large pore form” of P2X7 receptor and to bind to intracellular DNA whereupon it increases many fold its fluorescence intensity. The dye has an absorption spectrum compatible with excitation at 488 nm by argon laser sources and its emission wavelength is in the range of 515-575 nm. The aim of this assay was to validate the interaction of antagonists with P2X7 receptor using an alternative readout to Ca^2+-sensitive fluorescent dyes.
HEK-293 cells stably transfected with P2X7 receptor were seeded overnight in growth medium at 20,000 cells/well in 384-well plate. 24 hours later, the medium was removed, the cells were washed with Low Divalent Cation Assay Buffer (0.3 mM Ca2+ and 0 mM Mg2+) and then pre-loaded with 20 μL/w of 5 μM YO-PRO®-1 dye. […] fluorescence measurement immediately started. Then, 10 μL/w of test compounds and reference antagonist A438079 at 3×-concentration were injected with the […] and the kinetic response over a period of five minutes was monitored. A second injection of 10 μL/w of 3× Bz-ATP EC80 (30 μM) was performed with the […] and the signal of the emitted fluorescence was recorded for additional 60 minutes. All the experiment was carried out with a Low Divalent Cation Assay Buffer (0.3 mM Ca^2+ and 0 mM Mg^2+).
The effect of the test compounds was measured as percent inhibition vs the reference antagonist and IC50 values were calculated accordingly.

Sequence of P2X7 receptor (hP2X7) (Q99572 whole entry): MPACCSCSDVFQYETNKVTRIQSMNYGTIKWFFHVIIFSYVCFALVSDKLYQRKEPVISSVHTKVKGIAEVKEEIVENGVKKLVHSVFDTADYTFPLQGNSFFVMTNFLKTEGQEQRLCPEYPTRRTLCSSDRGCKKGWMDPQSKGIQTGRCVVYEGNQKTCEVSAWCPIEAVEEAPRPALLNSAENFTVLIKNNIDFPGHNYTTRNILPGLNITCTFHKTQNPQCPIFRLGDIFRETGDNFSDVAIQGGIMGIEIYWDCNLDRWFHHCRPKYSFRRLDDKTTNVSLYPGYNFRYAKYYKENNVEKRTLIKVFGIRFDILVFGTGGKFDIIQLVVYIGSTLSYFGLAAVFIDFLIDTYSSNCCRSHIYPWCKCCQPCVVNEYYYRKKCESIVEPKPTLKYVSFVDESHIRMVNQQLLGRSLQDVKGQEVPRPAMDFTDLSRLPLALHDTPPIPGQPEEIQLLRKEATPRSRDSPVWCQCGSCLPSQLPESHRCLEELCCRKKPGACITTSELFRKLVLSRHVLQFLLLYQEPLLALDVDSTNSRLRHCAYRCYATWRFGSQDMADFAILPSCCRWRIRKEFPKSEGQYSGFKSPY
Sequence of P2X7 receptor (Q99572 whole entry): as above

O=C(NCC(c1nccs1)N1CCC(F)(F)CC1)c1c(F)cccc1Cl (stereo not shown) [Compound 2, 2-chloro-N-[2-(4,4-difluoro-piperidin-1-yl)-2-(1,3-thiazol-2-yl)-ethyl]-6-fluoro-benzamide]
IC50 (P2X7 receptor (hP2X7)): 306 nM | IC50 (P2X7 receptor): 1300 nM

O=C(NCC(c1cscn1)N1CCCOCC1)c1c(F)cccc1Cl (stereo not shown) [Compound 7]
IC50 (P2X7 receptor (hP2X7)): 840 nM | IC50 (P2X7 receptor): 1690 nM

Cc1cccc(C)c1C(=O)NCC(c1scnc1C)N1CCOCC1 (stereo not shown) [Compound 36, 2,6-dimethyl-N-[2-(4-methyl-1,3-thiazol-5-yl)-2-(morpholin-4-yl)ethyl]benzamide]
IC50 (P2X7 receptor (hP2X7)): 149 nM | IC50 (P2X7 receptor): 302 nM

Cc1cccc(C)c1C(=O)NCC(c1cnco1)N1CCC(F)(F)CC1 (stereo not shown) [Compound 46, N-[2-(4,4-difluoropiperidin-1-yl)-2-(1,3-oxazol-5-yl)ethyl]-2,6-dimethylbenzamide]
IC50 (P2X7 receptor (hP2X7)): 18 nM | IC50 (P2X7 receptor): 55 nM

Cc1cccc(C)c1C(=O)NCC(c1cnco1)N1CCc2ccccc2C1 (stereo not shown) [Compound 49, 2,6-dimethyl-N-[2-(1,3-oxazol-5-yl)-2-(1,2,3,4-tetrahydroisoquinolin-2-yl)ethyl]benzamide]
IC50 (P2X7 receptor (hP2X7)): 104 nM | IC50 (P2X7 receptor): 945 nM

O=C(NCC(c1cnc(C2CCC2)s1)N1CCC(F)(F)CC1)c1cccc2ncccc12 (stereo not shown) [Compound 105, N-[2-(2-cyclobutyl-1,3-thiazol-5-yl)-2-(4,4-difluoropiperidin-1-yl)ethyl]quinoline-5-carboxamide]
IC50 (P2X7 receptor (hP2X7)): 292 nM | IC50 (P2X7 receptor): 135 nM

O=C(NCC(c1cncs1)N1CCc2ccccc2C1)c1c(F)cccc1Cl (stereo not shown) [Compound 9, 2-chloro-N-[2-(3,4-dihydro-1H-isoquinolin-2-yl)-2-(1,3-thiazol-5-yl)-ethyl]-6-fluoro-benzamide]
IC50 (P2X7 receptor (hP2X7)): 100 nM | IC50 (P2X7 receptor): 464 nM

COc1cccc(C(=O)NCC(c2cncs2)N2CCC(F)(F)CC2)c1OC (stereo not shown) [Compound 21, N-[2-(4,4-difluoropiperidin-1-yl)-2-(1,3-thiazol-5-yl)ethyl]-2,3-dimethoxybenzamide]
IC50 (P2X7 receptor (hP2X7)): 31 nM | IC50 (P2X7 receptor): 129 nM

Cc1nc(C)c(C(CNC(=O)c2cc(-c3ncc(F)cn3)ccc2Cl)N2CCC(F)(F)CC2)o1 (stereo not shown) [Compound 58, 2-chloro-N-[2-(4,4-difluoropiperidin-1-yl)-2-(2,4-dimethyl-1,3-oxazol-5-yl)ethyl]-5-(5-fluoropyrimidin-2-yl)benzamide]
IC50 (P2X7 receptor (hP2X7)): 1120 nM | IC50 (P2X7 receptor): 2970 nM

Cc1ncsc1C(CNC(=O)c1cc(-c2ncc(F)cn2)ccc1Cl)N1CCOCC1 (stereo not shown) [Compound 37, 2-chloro-5-(5-fluoropyrimidin-2-yl)-N-[2-(4-methyl-1,3-thiazol-5-yl)-2-(morpholin-4-yl)ethyl]benzamide]
IC50 (P2X7 receptor (hP2X7)): 106 nM | IC50 (P2X7 receptor): 90 nM

Cc1ncsc1C(CNC(=O)c1cc(-c2ncc(F)cn2)ccc1Cl)N1CCOC2(CCC2)C1 (stereo not shown) [Compound 93, 2-chloro-5-(5-fluoropyrimidin-2-yl)-N-[2-(4-methyl-1,3-thiazol-5-yl)-2-{5-oxa-8-azaspiro[3.5]nonan-8-yl}ethyl]benzamide]
IC50 (P2X7 receptor (hP2X7)): 116 nM | IC50 (P2X7 receptor): 82 nM

O=C(NCC(c1cnco1)N1CCC(OCc2ccccc2)CC1)c1c(F)cccc1Cl (stereo not shown) [Compound 63, N-{2-[4-(benzyloxy)piperidin-1-yl]-2-(1,3-oxazol-5-yl)ethyl}-2-chloro-6-fluorobenzamide]
IC50 (P2X7 receptor (hP2X7)): 69 nM | IC50 (P2X7 receptor): 158 nM

O=C(NCC(c1cnc(C2CCC2)s1)N1CCC(F)(F)CC1)c1cc(-c2ncc(F)cn2)ccc1F (stereo not shown) [Compound 106, N-[2-(2-cyclobutyl-1,3-thiazol-5-yl)-2-(4,4-difluoropiperidin-1-yl)ethyl]-2-fluoro-5-(5-fluoropyrimidin-2-yl)benzamide]
IC50 (P2X7 receptor (hP2X7)): 1240 nM | IC50 (P2X7 receptor): 807 nM

O=C(NCC(c1cncs1)N1CCC(F)(F)CC1)c1cc(-c2ncc(F)cn2)ccc1Cl (stereo not shown) [Compound 20, 2-chloro-N-[2-(4,4-difluoropiperidin-1-yl)-2-(1,3-thiazol-5-yl)ethyl]-5-(5-fluoropyrimidin-2-yl)-benzamide]
IC50 (P2X7 receptor (hP2X7)): 34 nM | IC50 (P2X7 receptor): 30 nM

O=C(NCC(c1cnc(CO)s1)N1CCC(F)(F)CC1)c1cc(-c2ncc(F)cn2)ccc1Cl (stereo not shown) [Compound 112]
IC50 (P2X7 receptor (hP2X7)): 119 nM | IC50 (P2X7 receptor): 36 nM

Cc1cccc(C)c1C(=O)NCC(c1cncs1)N1CCOCC1 (stereo not shown) [Compound 11, 2,6-dimethyl-N-[2-(morpholin-4-yl)-2-(1,3-thiazol-5-yl)ethyl]benzamide]
IC50 (P2X7 receptor (hP2X7)): 81 nM | IC50 (P2X7 receptor): 220 nM

Cc1cccc(Cl)c1C(=O)NCC(c1cncs1)N1CCC(OCc2ccccc2)CC1 (stereo not shown) [Compound 24, N-{2-[4-(benzyloxy)piperidin-1-yl]-2-(1,3-thiazol-5-yl)ethyl}-2-chloro-6-methylbenzamide]
IC50 (P2X7 receptor (hP2X7)): 111 nM | IC50 (P2X7 receptor): 44 nM

O=C(NCC(c1cnco1)N1CCc2ccccc2C1)c1c(F)cccc1Cl (stereo not shown) [Compound 48, 2-chloro-6-fluoro-N-[2-(1,3-oxazol-5-yl)-2-(1,2,3,4-tetrahydroisoquinolin-2-yl)ethyl]benzamide]
IC50 (P2X7 receptor (hP2X7)): 541 nM | IC50 (P2X7 receptor): 1070 nM

O=C(NCC(c1cncs1)N1CCC(Oc2ccccc2)CC1)c1c(F)cccc1Cl (stereo not shown) [Compound 27, 2-chloro-6-fluoro-N-[2-(4-phenoxypiperidin-1-yl)-2-(1,3-thiazol-5-yl)ethyl]benzamide]
IC50 (P2X7 receptor (hP2X7)): 63 nM | IC50 (P2X7 receptor): 52 nM

O=C(NCC(c1cncs1)N1CCOCC1)c1c(F)cccc1Cl (stereo not shown) [Compound 10, 2-chloro-6-fluoro-N(2-(morpholin-4-yl)-2-(thiazol-5-yl)-ethyl)benzamide]
IC50 (P2X7 receptor (hP2X7)): 57 nM | IC50 (P2X7 receptor): 57 nM

Cc1cccc(C)c1C(=O)NCC(c1cncs1)N1CCC(Oc2ccccc2)CC1 (stereo not shown) [Compound 26, 2,6-dimethyl-N-[2-(4-phenoxypiperidin-1-yl)-2-(1,3-thiazol-5-yl)ethyl]benzamide]
IC50 (P2X7 receptor (hP2X7)): 119 nM | IC50 (P2X7 receptor): 44 nM

Cc1ncsc1C(CNC(=O)c1cccc2ncccc12)N1CCOC(c2ccc(F)cc2F)C1 (stereo not shown) [Compound 99, N-{2-[2-(2,4-difluorophenyl)morpholin-4-yl]-2-(4-methyl-1,3-thiazol-5-yl)ethyl}quinoline-5-carboxamide]
IC50 (P2X7 receptor (hP2X7)): 32 nM | IC50 (P2X7 receptor): 79 nM

Cc1cccc(Cl)c1C(=O)NCC(c1cncs1)N1CCc2ccccc2C1 (stereo not shown) [Compound 19, 2-chloro-6-methyl-N-[2-(1,2,3,4-tetrahydroisoquinolin-2-yl)-2-(1,3-thiazol-5-yl)ethyl]benzamide]
IC50 (P2X7 receptor (hP2X7)): 104 nM | IC50 (P2X7 receptor): 197 nM

Cc1ncc(C(CNC(=O)c2c(F)cccc2Cl)N2CCC(OCc3ccccc3)CC2)s1 (stereo not shown) [Compound 62, N-{2-[4-(benzyloxy)piperidin-1-yl]-2-(2-methyl-1,3-thiazol-5-yl)ethyl}-2-chloro-6-fluorobenzamide]
IC50 (P2X7 receptor (hP2X7)): 576 nM | IC50 (P2X7 receptor): 1110 nM

O=C(NCC(c1nccs1)N1CCc2ccccc2C1)c1c(F)cccc1Cl (stereo not shown) [Compound 1, 2-chloro-N-[2-(3,4-dihydro-1H-isoquinolin-2-yl)-2-(1,3-thiazol-2-yl)-ethyl]-6-fluoro-benzamide]
IC50 (P2X7 receptor (hP2X7)): 1020 nM | IC50 (P2X7 receptor): 1360 nM

O=C(NCC(c1cncs1)N1CCC(F)(F)CC1)c1c(F)cccc1Cl (stereo not shown) [Compound 8, 2-chloro-N-[2-(4,4-difluoro-piperidin-1-yl)-2-(1,3-thiazol-5-yl)ethyl]-6-fluoro-benzamide]
IC50 (P2X7 receptor (hP2X7)): 28 nM | IC50 (P2X7 receptor): 389 nM

Nc1ccc(Cl)c(C(=O)NCC(c2cncs2)N2CCC(F)(F)CC2)c1 (stereo not shown) [Compound 16, 5-amino-2-chloro-N-[2-(4,4-difluoropiperidin-1-yl)-2-(1,3-thiazol-5-yl)ethyl]benzamide]
IC50 (P2X7 receptor (hP2X7)): 32 nM | IC50 (P2X7 receptor): 98 nM

O=C(NCC(c1cnco1)N1CCOCC1)c1c(F)cccc1Cl (stereo not shown) [Compound 44, 2-chloro-6-fluoro-N-[2-(morpholin-4-yl)-2-(1,3-oxazol-5-yl)ethyl]benzamide]
IC50 (P2X7 receptor (hP2X7)): 677 nM | IC50 (P2X7 receptor): 500 nM

Cc1ncoc1C(CNC(=O)c1cc(-c2ncc(F)cn2)ccc1Cl)N1CCOCC1 (stereo not shown) [Compound 54, 2-chloro-5-(5-fluoropyrimidin-2-yl)-N-[2-(4-methyl-1,3-oxazol-5-yl)-2-(morpholin-4-yl)ethyl]benzamide]
IC50 (P2X7 receptor (hP2X7)): 114 nM | IC50 (P2X7 receptor): 279 nM
